Consider two compounds from publication PMC6149861, “Identification, In Vitro Testing and Molecular Docking Studies of Microginins’ Mechanism of Angiotensin-Converting Enzyme Inhibition” (Molecules : A Journal of Synthetic Chemistry and Natural …, 2017).

Read-outs that look alike come from different tables or passages of the source.

The experiment concerns angiotensin-converting enzyme (ACE; EC. 3.4.15.1). The format is biochemical. To be noted: for ACE inhibitory rate: HHL substrate, pH 8.3, 37 °C, HPLC-DAD 226 nm, mean ± SEM of three repeats. As for the experimental part:
The ACE inhibiting capability was evaluated according to the method described by Wang et al. ([14], which employs the hippuryl-histidilleucina tripeptide (Hip-His-Leu or HHL) as the substrate and evaluates the formation of hippuric acid (HA) by liquid chromatography (HPLC-DAD). Briefly, the commercial enzyme ACE and the substrate HHL (Sigma-Aldrich®) were dissolved in borate buffer (NaOH and boric acid) 100 mmol·L^−1, pH 8.3, supplemented with 300 mmol·L^−1 NaCl; their concentrations were 0.2 U/mL and 5 mmol·L^−1, respectively. Meanwhile, HA and captopril (standard ACE inhibitor) were dissolved in distilled water. The enzyme was pre-incubated in the presence or absence of inhibitor (isolated microginins or captopril) for […] at 37 °C, and the reaction was initiated by addition of substrate. After 30 min, the reaction was stopped by adding 250 μL of hydrochloric acid, and the sample was directly injected into the chromatographic system. […] After 5 min, the substrate was added to start the reaction.
The inhibitory rate was calculated, according to Wang et al., by I% = (A − B)/A × 100%; where A is the peak area of HA without adding ACE inhibitors; and B is the peak area of HA with the addition of ACE inhibitors. All data presented are the average of three repeats; the data are presented as means ± SEM.

The compound `C[C@H](CS)C(=O)N1CCC[C@H]1C(=O)O` [captopril, reference compound] had an ACE inhibitory rate (captopril 0.8 µM) of 88.25 ± 1.19%.

As to “MeAhda-L-Val-L-Leu-L-HTyr-L-Tyr [MG 770]”, where the note is “IC50-based comparison with other microginins”, the “ACE inhibition (in words)” value was “efficiently inhibits ACE, with activity comparable to that of other previously described microginins”. Also, the ACE inhibitory rate (microginin 800 µg·mL^−1) is 92.15 ± 2.76%.
